Measured values taken from patent publication US4073913A, “N^2 -arylsulfonyl-L-argininamides and the pharmaceutically acceptable salts thereof” (Mitsubishi Chemical Industries Limited, priority 1974, dated 1978).
Non-standard residues stand in square brackets, D forms with d. Residues, ends and D or L forms follow the SMILES beside them. ξ: configuration not given here. *: point of attachment. Dansyl = CN(C)c1cccc2c(S(=O)(=O)*)cccc12; ξPip = O=C(O)C1CCCCN1

Test system: not listed separately
Assay: acute toxicity (LD50), intraperitoneal administration in mice
Format: in vivo, mice (male, 20 g)
Details: comparison with N^2 -dansyl-L-argininamides; route and species not restated

SMILES	LD50 values (comparison dansyl compounds) [milligrams per kilogram]
CCCCNC(=O)[C@H](CCCNC(=N)N)NS(=O)(=O)c1cccc2c(N(C)C)cccc12 [N^2 -dansyl-N-butyl-L-argininamide, reference compound]	75

Same assay, conditions: intraperitoneal, mice (male, 20 g)

SMILES	LD50
COc1cc2ccc(S(=O)(=O)N[C@@H](CCCNC(=N)N)C(=O)N(CC(=O)O)C3CCCCC3)cc2cc1OC [N^2-(6,7-dimethoxy-2-naphthylsulfonyl)-L-arginyl-N-cyclohexylglycine]	> 1,500 mg/kg

Same assay, conditions: mouse, in vivo, ip, intraperitoneal, mice (male, 20 g); read-out: LD50

SMILES	LD50 [mg/kg]
COc1cc2ccc(S(=O)(=O)N[C@@H](CCCNC(=N)N)C(=O)N3Cc4ccccc4CC3C(=O)O)cc2cc1OC (stereo partly drawn) [2-N^2-(6,7-dimethoxy-2-naphthylsulfonyl)-L-arginyl!-1,2,3,4-tetrahydroisoquinoline-3-carboxylic acid]	> 1000
COc1cc2ccc(S(=O)(=O)N[C@@H](CCCNC(=N)N)C(=O)N(CC(=O)O)CC3CCCCC3)cc2cc1OC [N^2-(6,7-dimethoxy-2-naphthylsulfonyl)-L-arginyl-N-cyclohexylmethylglycine]	> 1500
Cc1ccc2ccc(S(=O)(=O)N[C@@H](CCCNC(=N)N)C(=O)N(CC(=O)O)CC3CCCO3)cc2c1 (stereo partly drawn) [N^2-(7-methyl-2-naphthylsulfonyl)-L-arginyl-N-tetrahydrofurfurylglycine]	600
CCCCN(C(=O)[C@H](CCCNC(=N)N)NS(=O)(=O)c1ccc2cc(OC)c(OC)cc2c1)[C@@H](C)C(=O)O [N^2-(6,7-dimethoxy-2-naphthylsulfonyl)-L-arginyl-N-butylalanine]	> 1500
CC1CCN(C(=O)[C@H](CCCNC(=N)N)NS(=O)(=O)c2cccc3ccccc23)C(C(=O)O)C1 (stereo partly drawn) [1-N^2-(1-naphthylsulfonyl)-L-arginyl!-4-methyl-2-piperidinecarboxylic acid]	700 to 1000
CN(C)c1cccc2c(S(=O)(=O)N[C@@H](CCCNC(=N)N)C(=O)N3CCCCC3C(=O)O)cccc12 (stereo partly drawn) [1-N^2-(5-dimethylamino-1-naphthylsulfonyl)-L-arginyl!-2-piperidinecarboxylic acid] (Dansyl-Arg-[ξPip]-OH)	700 to 1000
COCCN(CC(=O)O)C(=O)[C@H](CCCNC(=N)N)NS(=O)(=O)c1ccc2cc(OC)c(OC)cc2c1 [N^2-(6,7-dimethoxy-2-naphthylsulfonyl)-L-arginyl-N-(2-methoxyethyl)glycine]	1900 to 2400
COCCN(CC(=O)O)C(=O)[C@H](CCCNC(=N)N)NS(=O)(=O)c1ccc2ccc(OC)cc2c1 [N^2-(7-methoxy-2-naphthylsulfonyl)-L-arginyl-N-(2-methoxyethyl)glycine]	2000
COc1ccc2ccc(S(=O)(=O)N[C@@H](CCCNC(=N)N)C(=O)N3CCOCC3C(=O)O)cc2c1 (stereo partly drawn) [4-N^2-(7-methoxy-2-naphthylsulfonyl)-L-arginyl!-3-morpholinecarboxylic acid]	> 1000
COc1cc2ccc(S(=O)(=O)N[C@@H](CCCNC(=N)N)C(=O)N(CC(=O)O)C3CCCCC3)cc2cc1OC [N^2-(6,7-dimethoxy-2-naphthylsulfonyl)-L-arginyl-N-cyclohexylglycine]	1500

Biological target: T1, thrombin (Bos taurus, UniProt P00735)
T1 construct: clotting of bovine fibrinogen
Assay: fibrinogen coagulation time (concentration required to prolong the coagulation time by a factor of two)
Format: biochemical
Details: bovine fibrinogen, thrombin 5 units/ml, borate saline buffer pH 7.4, 25° C; control 50-55 seconds prolonged to 100-110 seconds
Description: The measurement of the fibrinogen coagulation time was conducted as follows:
Immediately after mixing, the reaction mixture was transferred from the ice bath to a bath maintained at 25° C. Coagulation times were taken as the period between the time of transference to the 25° C bath and the time of the first appearance of fibrin threads. […] The term "concentration required to prolong the coagulation time by a factor of two" is the concentration of an active ingredient required to prolong the normal coagulation time 50-55 seconds to 100-110 seconds.

SMILES	IC (2-fold clotting time) [µM]
COCCN(CC(=O)O)C(=O)[C@H](CCCNC(=N)N)NS(=O)(=O)c1ccc2cc(OC)c(OC)cc2c1 [compound 13]	0.5
COc1cc2ccc(S(=O)(=O)N[C@@H](CCCNC(=N)N)C(=O)N(CCc3ccccc3)C(C)C(=O)O)cc2cc1OC (stereo partly drawn) [compound 122]	1.5
COc1cc2ccc(S(=O)(=O)N[C@@H](CCCNC(=N)N)C(=O)N(Cc3ccccc3)C(C)C(=O)O)cc2cc1OC (stereo partly drawn) [compound 120]	2.5
CCCCN(CC(=O)O)C(=O)[C@H](CCCNC(=N)N)NS(=O)(=O)c1cc(OC)c2cc(OC)ccc2c1 [compound 25]	2
COc1ccc2cc(S(=O)(=O)N[C@@H](CCCNC(=N)N)C(=O)N(CCC(=O)O)Cc3ccccc3)ccc2c1 [compound 62]	15
COCCN(CC(=O)O)C(=O)[C@H](CCCNC(=N)N)NS(=O)(=O)c1cc(OC)c2cc(OC)ccc2c1 [compound 23]	4
CCCCCN(C(=O)[C@H](CCCNC(=N)N)NS(=O)(=O)c1ccc2cc(OC)c(OC)cc2c1)C(C)C(=O)O (stereo partly drawn) [compound 118]	2
CCOCCN(CCC(=O)O)C(=O)[C@H](CCCNC(=N)N)NS(=O)(=O)c1ccc2cc(OC)c(OC)cc2c1 [compound 21]	4
COc1ccc2cc(S(=O)(=O)N[C@@H](CCCNC(=N)N)C(=O)N(CC(=O)O)Cc3ccccc3)cc(OC)c2c1 [compound 58]	6.5
CCOC(=O)CN(CCOC)C(=O)[C@H](CCCNC(=N)N)NS(=O)(=O)c1ccc2cc(OC)c(OC)cc2c1 [compound 14]	1.5
COCCCN(CC(=O)O)C(=O)[C@H](CCCNC(=N)N)NS(=O)(=O)c1ccc2cc(OC)c(OC)cc2c1 [compound 19]	5
COCCN(CC(=O)O)C(=O)[C@H](CCCNC(=N)N)NS(=O)(=O)c1cccc2c(OC)cccc12 [compound 43]	2.5
COc1ccc2ccc(S(=O)(=O)N[C@@H](CCCNC(=N)N)C(=O)N(CCSC)CC(=O)O)cc2c1 [compound 67]	1
CCCCN(CC(=O)O)C(=O)[C@H](CCCNC(=N)N)NS(=O)(=O)c1ccc2cc(OC)ccc2c1 [compound 31]	0.5
CCSCCN(CC(=O)O)C(=O)[C@H](CCCNC(=N)N)NS(=O)(=O)c1ccc2cc(OC)c(OC)cc2c1 [compound 69]	5
CCCN(CC(=O)O)C(=O)[C@H](CCCNC(=N)N)NS(=O)(=O)c1ccc2cc(OC)c(OC)cc2c1 [compound 1]	8
COc1ccc2ccc(S(=O)(=O)N[C@@H](CCCNC(=N)N)C(=O)N(CCc3ccccc3)CC(=O)O)cc2c1 [compound 64]	20
COCCN(CC(=O)O)C(=O)[C@H](CCCNC(=N)N)NS(=O)(=O)c1ccc2ccc(OC)cc2c1 [compound 35]	0.5
COCCN(CC(=O)O)C(=O)[C@H](CCCNC(=N)N)NS(=O)(=O)c1cccc2c1CCCC2 [compound 132]	10
Cc1ccc2ccc(S(=O)(=O)N[C@@H](CCCNC(=N)N)C(=O)N(CC(=O)O)CC3CCCO3)cc2c1 (stereo partly drawn) [compound 160]	0.25
COc1cc2ccc(S(=O)(=O)N[C@@H](CCCNC(=N)N)C(=O)N3Cc4ccccc4C3C(=O)O)cc2cc1OC (stereo partly drawn) [compound 195]	1.5
CCOc1cc2ccc(S(=O)(=O)N[C@@H](CCCNC(=N)N)C(=O)N(CCOC)CC(=O)O)cc2cc1OCC [compound 27]	15
COc1ccc2cc(S(=O)(=O)N[C@@H](CCCNC(=N)N)C(=O)N(CC3CCCCC3)C(C)C(=O)O)cc(OC)c2c1 (stereo partly drawn) [compound 126]	4.5
COc1cc2ccc(S(=O)(=O)N[C@@H](CCCNC(=N)N)C(=O)N3CCCCC3C(=O)O)cc2cc1OC (stereo partly drawn) [compound 71]	5
CC1CCN(C(=O)[C@H](CCCNC(=N)N)NS(=O)(=O)c2cccc3ccccc23)C(C(=O)O)C1 (stereo partly drawn) [compound 179]	1

More lines, now with the values ahead:

IC (2-fold clotting time) [µM]	SMILES
2	COc1cc2ccc(S(=O)(=O)N[C@@H](CCCNC(=N)N)C(=O)N(C)C(Cc3ccccc3)C(=O)O)cc2cc1OC (stereo partly drawn) [compound 209]
4	CCCCN(CC(=O)O)C(=O)[C@H](CCCNC(=N)N)NS(=O)(=O)c1cccc2c(N(C)C)cccc12 [compound 153]
2.5	COc1ccc2ccc(S(=O)(=O)N[C@@H](CCCNC(=N)N)C(=O)N(C)C(Cc3ccccc3)C(=O)O)cc2c1 (stereo partly drawn) [compound 211]
15	CCCC(NC(=O)[C@H](CCCNC(=N)N)NS(=O)(=O)c1ccc2cc(OC)c(OC)cc2c1)C(=O)O (stereo partly drawn) [compound 214]
0.2	COCCN(CC(=O)O)C(=O)[C@H](CCCNC(=N)N)NS(=O)(=O)c1ccc2ccc(C)cc2c1 [compound 144]
0.5	CC(C)C1CCN(C(=O)[C@H](CCCNC(=N)N)NS(=O)(=O)c2ccc3ccccc3c2)C(C(=O)O)C1 (stereo partly drawn) [compound 181]
6.5	CCOC(=O)CCN(CC(=O)O)C(=O)[C@H](CCCNC(=N)N)NS(=O)(=O)c1ccc2cc(OC)c(OC)cc2c1 [compound 196]
30	N=C(N)NCCC[C@H](NS(=O)(=O)c1ccc2c(c1)CCCC2)C(=O)N(CC(=O)O)Cc1ccccc1 [compound 133]
55	CCCC(C(=O)O)N(CC(=O)O)C(=O)[C@H](CCCNC(=N)N)NS(=O)(=O)c1ccc2cc(OC)c(OC)cc2c1 (stereo partly drawn) [compound 207]
4.5	COc1ccc2ccc(S(=O)(=O)N[C@@H](CCCNC(=N)N)C(=O)N3CC[S+]([O-])CC3C(=O)O)cc2c1 (stereo partly drawn) [compound 204]
5	COc1cc2ccc(S(=O)(=O)N[C@@H](CCCNC(=N)N)C(=O)N3CCOCC3C(=O)O)cc2cc1OC (stereo partly drawn) [compound 191]
14	Cc1ccc2ccc(S(=O)(=O)N[C@@H](CCCNC(=N)N)C(=O)N(CC(=O)O)CC3CCCCC3)cc2c1 [compound 146]
0.15	COc1ccc2ccc(S(=O)(=O)N[C@@H](CCCNC(=N)N)C(=O)N(CC(=O)O)CC3CCCO3)cc2c1 (stereo partly drawn) [compound 164]
6.5	COc1ccc2ccc(S(=O)(=O)N[C@@H](CCCNC(=N)N)C(=O)N(CC[S+](C)[O-])CC(=O)O)cc2c1 (stereo partly drawn) [compound 222]
20	COCCN(CC(=O)Oc1cccc(C)c1)C(=O)[C@H](CCCNC(=N)N)NS(=O)(=O)c1ccc2cc(OC)c(OC)cc2c1 [compound 202]
20	COCCN(CC(=O)O)C(=O)[C@H](CCCNC(=N)N)NS(=O)(=O)c1cccc2ccc(C)cc12 [compound 151]
0.2	COc1ccc2ccc(S(=O)(=O)N[C@@H](CCCNC(=N)N)C(=O)N(CC(=O)O)Cc3ccco3)cc2c1 [compound 162]
